From patent US20240408222A1, “COMPOUNDS, PHARMACEUTICAL COMPOSITIONS, AND METHODS FOR THE TREATMENT, PREVENTION, OR MANAGEMENT OF HYPERPRO[…]” (VINCERX PHARMA GMBH, priority 2021, published 2024)
Where a name gives a salt, the structure may show the parent alone.

Key:
NCI H292 [1] = test: Cytotoxicity in vitro (MTT) in presence/absence of elastase; format: cell-based, human; conditions: 72 h
Procedure: (§1) Cultivation of cells was performed according to standard procedures with the media recommended by the provider. The cells, in a total volume of 100 μL, were seeded in a 96-well plate with a white bottom (#3610). After a 24 h incubation period at 37° C. and […], the medium was exchanged by adding 90 μL fresh medium. The treatment started by adding the test compound in 10 μL of culture medium to the cells in triplicates. Concentrations ranging from 10^−5 M to 10^−13 M were chosen. Two identically treated sets of samples were prepared. One set was treated with the test compound alone, whereas to the second set the compound and 10 nM elastase was added followed by a 72 h incubation period at 37° C. and […]. The proliferation was detected using the MTT assay (ATCC). At the end of the incubation period the MTT reagent was added to all samples for 4 h. Lysis of the cells followed by addition of the detergent was done overnight. The formed dye was detected at 570 nm. The proliferation of untreated but otherwise identically handled cells was define as the 100% value.

HT29 [2] = test: as above; format: cell-based, human; conditions: 72 h
Procedure: as §1

786-O [3] = test: as above; format: cell-based, human; conditions: 72 h
Procedure: as §1

SUM149 [4] = test: as above; format: cell-based; conditions: 72 h
Procedure: as §1

NCI H292 [5] = test: Cytotoxicity assay (Version 2, automated, AC50) with/without neutrophil elastase; format: cell-based, human; conditions: Version 2, activity concentration at −50%
Procedure: as §1
(§2) The cytotoxicity assay (Version 2) was performed as described above. Some changes were applied as the assays were performed in an automated fashion and the IC50 values determination was changed. Here the change in metabolic activity of the cells, in percent, was calculated by normalization of the measured values to the absorbance values of medium containing wells without cells (═−100%) and the absorbance of the DMSO-treated cells (═0%). AC50 values (activity concentration at −50%) were determined by means of a 4 parameter Hill-fit using GeneData Screener software.

HT29 [6] = test: as above; format: cell-based, human; conditions: Version 2, activity concentration at −50%
Procedure: as §1, §2

786-O [7] = test: as above; format: cell-based, human; conditions: Version 2, activity concentration at −50%
Procedure: as §1, §2

SUM149 [8] = test: as above; format: cell-based; conditions: Version 2, activity concentration at −50%
Procedure: as §1, §2

[9] = NCI H292, with (+) 10 nM neutrophil elastase
[10] = NCI H292, without (−) neutrophil elastase
[11] = HT29, with (+) 10 nM neutrophil elastase
[12] = HT29, without (−) neutrophil elastase
[13] = without (−) neutrophil elastase
[14] = SUM149, with (+) 10 nM neutrophil elastase
[15] = SUM149, without (−) neutrophil elastase
[16] = NCI H292, with (+) neutrophil elastase
[17] = HT29, with (+) neutrophil elastase
[18] = SUM149, with (+) neutrophil elastase

Row | SMILES | IC50 (NCI H292 [1]; [9]) [nM] | IC50 (NCI H292 [1]; [10]) [nM] | IC50 (HT29 [2]; [11]) [nM] | IC50 (HT29 [2]; [12]) [nM] | IC50 (786-O [3]; with (+) 10 nM neutrophil elastase) [nM] | IC50 (786-O [3]; [13]) [nM] | IC50 (SUM149 [4]; [14]) [nM] | IC50 (SUM149 [4]; [15]) [nM] | AC50 (NCI H292 [5]; [16]) [nM] | AC50 (NCI H292 [5]; [10]) [nM] | AC50 (HT29 [6]; [17]) [nM] | AC50 (HT29 [6]; [12]) [nM] | AC50 (786-O [7]; with (+) neutrophil elastase) [nM] | AC50 (786-O [7]; [13]) [nM] | AC50 (SUM149 [8]; [18]) [nM] | AC50 (SUM149 [8]; [15]) [nM]
1 | CCCNC(=O)Nc1cccc(S(=O)(=O)Nc2cccc([C@@H](CC(=O)O)NC(=O)Nc3ccc(NC(=O)NCCN(C)CCN(C)CCN(C)CC(=O)N[C@@H](CC(N)=O)C(=O)N4CCC[C@H]4C(=O)N[C@H](C(=O)N=[S@@](C)(=O)Cc4cc5cc(c4)OCCCCCNc4cc(ccc4F)-c4nc(ncc4F)N5)C(C)C)cc3)c2)c1 (relative stereo) [Compound 15] | ≤ 1 | 11 to 100 | ≤ 1 | > 100 | ≤ 1 | > 100 | ≤ 1 | 11 to 100 | 11 to 100 | 100 to 1000 | 100 to 1000 | 100 to 1000 | 100 to 1000 | 100 to 1000 | 100 to 1000 | 100 to 1000
2 | CCCNC(=O)Nc1cccc(S(=O)(=O)Nc2cccc([C@H](CC(=O)O)NC(=O)Nc3ccc(NC(=O)NCCOCCOCCOCCC(=O)NCCCC[C@H](NC(=O)CCOCCOCCOCCNC(=O)Nc4ccc(NC(=O)N[C@@H](CC(=O)O)c5cccc(NS(=O)(=O)c6cccc(NC(=O)NCCC)c6)c5)cc4)C(=O)NCCN(C)CCN(C)CCN(C)CC(=O)N[C@@H](CC(N)=O)C(=O)N4CCC[C@H]4C(=O)N[C@H](C(=O)N=[S@@](C)(=O)Cc4cc5cc(c4)O[C@@H](C)CCOc4cc(F)ccc4-c4nc(ncc4F)N5)C(C)C)cc3)c2)c1 (relative stereo) [Compound 29] | – | – | – | – | – | – | – | – | ≤ 10 | 100 to 1000 | ≤ 10 | 100 to 1000 | ≤ 10 | > 1000 | ≤ 10 | 100 to 1000
3 | CCCNC(=O)Nc1cccc(S(=O)(=O)Nc2cccc([C@@H](CC(=O)O)NC(=O)Nc3ccc(NC(=O)NCCOCCOCCOCCC(=O)N[C@@H](CC(=O)OCCCCN(C)C)C(=O)N4CCC[C@H]4C(=O)N[C@H](C(=O)N=S(C)(=O)Cc4cc5cc(c4)OCCCCOc4cc(F)ccc4-c4nc(ncc4F)N5)C(C)C)cc3)c2)c1 (single isomer, unassigned) [Compound 21] | – | – | – | – | – | – | – | – | 11 to 100 | 100 to 1000 | 11 to 100 | > 1000 | 11 to 100 | > 1000 | 11 to 100 | 100 to 1000
4 | CCCNC(=O)Nc1cccc(S(=O)(=O)Nc2cccc([C@@H](CC(=O)O)NC(=O)Nc3ccc(NC(=O)NCCN(C)CCN(C)CCN(C)CC(=O)N[C@@H](CC(N)=O)C(=O)N4CCC[C@H]4C(=O)N[C@H](C(=O)N=S(C)(=O)Cc4cc5nc(c4)OCCCOc4cc(F)ccc4-c4cc(ncc4F)N5)C(C)C)cc3)c2)c1 (mixture of isomers) [Compound 22] | – | – | – | – | – | – | – | – | ≤ 10 | 100 to 1000 | ≤ 10 | 100 to 1000 | ≤ 10 | 100 to 1000 | ≤ 10 | 100 to 1000
5 | CCCNC(=O)Nc1cccc(S(=O)(=O)Nc2cccc([C@@H](CC(=O)O)NC(=O)Nc3ccc(NC(=O)N(C)CCN(C)CCN(C)CC(=O)N[C@@H](CC(N)=O)C(=O)N4CCC[C@H]4C(=O)N[C@H](C(=O)N=S(C)(=O)Cc4cc5cc(c4)OC(C)CCOc4cc(F)ccc4-c4nc(ncc4F)N5)C(C)C)cc3)c2)c1 (relative stereo) [Compound 6] | ≤ 1 | > 100 | ≤ 1 | > 100 | – | – | ≤ 1 | 11 to 100 | ≤ 10 | 100 to 1000 | ≤ 10 | ≤ 10 | ≤ 10 | ≤ 10 | ≤ 10 | ≤ 10
6 | CCCNC(=O)Nc1cccc(S(=O)(=O)Nc2cccc([C@@H](CC(=O)O)NC(=O)Nc3ccc(NC(=O)NCCOCCOCCOCCC(=O)N[C@@H](CC(=O)O)C(=O)N4CCC[C@H]4C(=O)N[C@H](C(=O)N=[S@](C)(=O)Cc4cc5nc(c4)O[C@H](C)CCCCOc4cc(F)ccc4-c4cc(ncc4F)N5)C(C)C)cc3)c2)c1 (relative stereo) [Compound 56] | – | – | – | – | – | – | – | – | 11 to 100 | > 1000 | 11 to 100 | > 1000 | 11 to 100 | > 1000 | 11 to 100 | 100 to 1000
7 | CCCNC(=O)Nc1cccc(S(=O)(=O)Nc2cccc([C@H](CC(=O)O)NC(=O)Nc3ccc(NC(=O)NCCOCCOCCOCCC(=O)N[C@@H](CCCCNC(=O)CCOCCOCCOCCNC(=O)Nc4ccc(NC(=O)N[C@H](CC(=O)O)c5cccc(NS(=O)(=O)c6cccc(NC(=O)NCCC)c6)c5)cc4)C(=O)NCCOCCOCCOCCC(=O)N[C@@H](CC(=O)O)C(=O)N4CCC[C@H]4C(=O)N[C@H](C(=O)N=S(C)(=O)Cc4cc5nc(c4)OCCCOc4cc(F)ccc4-c4cc(ncc4F)N5)C(C)C)cc3)c2)c1 (relative stereo) [Compound 32] | – | – | – | – | – | – | – | – | ≤ 10 | 100 to 1000 | ≤ 10 | > 1000 | ≤ 10 | 100 to 1000 | ≤ 10 | 100 to 1000
8 | CCCNC(=O)Nc1cccc(S(=O)(=O)Nc2cccc([C@@H](CC(=O)O)NC(=O)Nc3ccc(NC(=O)NCCOCCOCCOCCC(=O)N[C@@H](CC(=O)OCCC[N+](C)(C)C)C(=O)N4CCC[C@H]4C(=O)N[C@H](C(=O)N=S(C)(=O)Cc4cc5cc(c4)OCCCCOc4cc(F)ccc4-c4nc(ncc4F)N5)C(C)C)cc3)c2)c1 (single isomer, unassigned) [Compound 20, trifluoroacetate] | – | – | – | – | – | – | – | – | 11 to 100 | > 1000 | 11 to 100 | > 1000 | 11 to 100 | > 1000 | 11 to 100 | 100 to 1000
9 | CCCNC(=O)Nc1cccc(S(=O)(=O)Nc2cccc([C@@H](CC(=O)O)NC(=O)Nc3ccc(NC(=O)NCCOCCOCCOCCC(=O)N[C@@H](CC(=O)O)C(=O)N4CCC[C@H]4C(=O)N[C@H](C(=O)N=[S@](C)(=O)Cc4cc5nc(c4)O[C@@H](C)CCCCOc4cc(F)ccc4-c4cc(ncc4F)N5)C(C)C)cc3)c2)c1 (relative stereo) [Compound 55] | – | – | – | – | – | – | – | – | 11 to 100 | > 1000 | 11 to 100 | > 1000 | 11 to 100 | > 1000 | ≤ 10 | > 1000
